Measurements published in US20130217678A1, “PHARMACEUTICAL AGENT COMPRISING QUINOLONE COMPOUND” (OTSUKA PHARMACEUTICAL CO., LTD., priority 2008, published 2013).

Columns and labels:
[1] = test system: human neuroblastoma cell lines SH-SY5Y treated with 1-methyl-4-phenylpyridinium (MPP+); experiment: Improvement of mitochondrial function (Alamar Blue mitochondrial oxidation reduction activity) in MPP+-treated SH-SY5Y cells; format: cell-based; settings: 1.5 mM MPP+, relative to cells in DMSO alone = 100%, read-out: Fluorescence Intensity (%); for activity at 0.01 µg/mL: compound 0.01 μg/ml; for activity at 0.03 µg/mL: compound 0.03 μg/ml; for activity at 0.1 µg/mL: compound 0.1 μg/ml; for activity at 0.3 µg/mL: compound 0.3 μg/ml; for activity at 1 µg/mL: compound 1 μg/ml
Method: In human neuroblastoma cell lines SH-SY5Y in which mitochondrial function was damaged by MPP^+ treatment (Bollimuntha S. et al., J Biol Chem, 280, 2132-2140 (2005) and Shang T. et al., J Biol Chem, 280, 34644-34653 (2005)), the improvement of mitochondrial function was evaluated on the basis of the measurement value for mitochondrial oxidation reduction activity using Alamar Blue fluorescent dye after the compound addition (Nakai M. et al, Exp Neurol, 179, 103-110 (2003)).
The human neuroblastoma cell lines SH-SY5Y were cultured in Dulbecco's Modified Eagle's Medium containing 10% fetal bovine serum (DMEM containing 50 units/ml penicillin and 50 μg/ml streptomycin as antibiotics) at 37° C. in the presence of 5% carbon dioxide. Cells were scattered on a poly-D-lysine-coated 96-well black plate at a concentration of 3−6×10^4 cells/cm^2 (medium amount: 100 μl/well) and cultured in the medium for two days. Further, the medium was changed to DMEM containing a 1% N2 supplement (N2-DMEM) or to a medium (100 μl/well) in which 1.5 mM MPP^+ was dissolved. The cells were cultured therein for 39 to 48 hours, and then subjected to a mitochondrial oxidation reduction activity measurement system. A sample compound that had been previously dissolved in dimethyl sulfoxide (DMSO) was diluted with N2-DMEM and added in a volume of 10 μl/well 24 hours before the activity measurement (final compound concentration: 0.01 to 1 μg/ml).
After removal of the medium by suction, a balanced salt solution containing 10% Alamar Blue (154 mM sodium chloride, 5.6 mM potassium chloride, 2.3 mM calcium chloride, 1.0 mM magnesium chloride, 3.6 mM sodium hydrogen carbonate, 5 mM glucose, 5 mM HEPES, pH 7.2) was added in a volume of 100 μl/well, and reacted in an incubator at 37° C. for 1 hour. The fluorescent intensity was detected using a fluorescence detector (a product of Hamamatsu Photonics K.K., excitation wavelength: 530 nm, measurement wavelength: 580 nm) to thereby measure the mitochondrial oxidation reduction activity.
The fluorescent intensity of the well of the cells cultured in a medium containing MPP^+ and each of the sample compounds was relatively evaluated based on the 100% fluorescent intensity of the well of the cells cultured in a medium containing DMSO alone (final concentration: 0.1%).

[2] = test system: tyrosine hydroxylase (TH); experiment: Dopaminergic neuronal protective activity in MPTP-treated C57BL/6 mouse: TH protein level in striatum (Western blot); format: in vivo; settings: 10 mg/kg oral at 30 min, 24 h, 48 h after MPTP s.c.; striatum 72 h after MPTP; mouse without MPTP = 100%
Method: (§1) Using a mouse having MPTP-induced dopaminergic neurons (Chan P. et al., J Neurochem, 57, 348-351 (1991)), the dopaminergic neuronal protective activity was evaluated based on the protein levels of tyrosine hydroxylase (TH) and dopamine transporter (DAT), which are dopaminergic neuronal marker proteins, and a dopamine content in the brain corpus striatum region after the compound administration (Mori A. et al., Neurosci Res, 51, 265-274 (2005)).
(§2) A male C57BL/6 mouse (provided by Japan Charles River Inc., 10 to 12 weeks) was used as a test animal. MPTP was dissolved in a physiological salt solution so that the concentration was 4 mg/ml, and then administered to the mouse subcutaneously in a volume of 10 ml/kg. A test compound was suspended in a 5% gum arabic/physiological salt solution (w/v) so that the concentration was 1 mg/ml. Each of the test compounds or solvents thereof was orally administered to the mouse after 30 minutes, 24 hours, and 48 hours of the MPTP administration. The mouse was decapitated after 72 hours of the MPTP administration, the brain was removed, and each side of the striatum was dissected.
(§3) The left striatum was used as a sample to detect the protein level by Western blot analysis. Each tissue was homogenized in a HEPES buffer sucrose solution (0.32 M sucrose, 4 μg/ml pepstatin, 5 μg/ml aprotinin, 20 μg/ml trypsin inhibitor, 4 μg/ml leupeptin, 0.2 mM phenylmethanesulfonyl fluoride, 2 mM ethylenediaminetetraacetic acid (EDTA), 2 mM ethylene glycol bis(β aminoethyl ether) tetraacetic acid, 20 mM HEPES, pH 7.2), and assayed for protein using a bicinchoninic acid kit for protein assay (provided by Pierce Corporation). Each homogenized sample, having an equal amount of protein that had been dissolved in a Laemmli sample buffer solution, was subjected to electrophoresis through a sodium dodecyl sulfate polyacrylamide gel. […] Subsequently, a horseradish peroxidase-labeled secondary antibody (a product of Amersham K.K.) for each primary antibody was fixed, and the chemiluminescence associated with enzyme activity of peroxidase was detected using a X-ray film. The density of the protein band on the film was analyzed using a densitometer (a product of Bio-rad Laboratories Inc.) to obtain the TH value relative to Na^+/K^+-ATPase and the DAT value relative to actin.
(§4) In both analyses, the value of the sample derived from the MPTP-induced mouse in which only the test compound or the solvent was administered was expressed relative to the value of the sample derived from the mouse without MPTP treatment (100%). Values were analyzed statistically using a nonclinical statistical analysis system, and values of significance probability less than 0.05 were defined as significant.

[3] = test system: dopamine transporter (DAT); experiment: Dopaminergic neuronal protective activity in MPTP-treated C57BL/6 mouse: DAT protein level in striatum (Western blot); format: in vivo; settings: 10 mg/kg oral at 30 min, 24 h, 48 h after MPTP s.c.; striatum 72 h after MPTP; mouse without MPTP = 100%
Method: as §1, §2, §3, §4

[4] = test system: dopamine content in the brain corpus striatum region; experiment: Dopaminergic neuronal protective activity in MPTP-treated C57BL/6 mouse: dopamine content in striatum (HPLC); format: in vivo; settings: 10 mg/kg oral at 30 min, 24 h, 48 h after MPTP s.c.; striatum 72 h after MPTP; mouse without MPTP = 100%
Method: as §1, §2
The right striatum, the tissue weight of which was measured immediately after dissection, was used as an analysis sample for determining the dopamine content. Each tissue was homogenized in a 0.1 N perchloric acid solution containing isoproterenol as an internal standard substance of the measurement, using an ultrasonic homogenizer while being cooled with ice. The supernatant obtained from 20,000 g of homogenate that had been centrifuged at 4° C. for 15 minutes was subjected to a high-performance liquid chromatography with a reversed phase column (a product of Eicom Corporation). A mobile phase 15% methanol 0.1 M citric acid/0.1 M sodium acetate buffer solution (containing 190 mg/L 1-sodium octane sulfonate and 5 mg/L EDTA, pH 3.5) was flowed at a rate of 0.5 ml/min, and the dopamine peak of each sample was detected using an electrochemical detector (applied voltage: +750 mV vs. Ag/AgCl, a product of Eicom Corporation). With reference to the identified dopamine peak, the dopamine content per tissue weight was calculated in each sample using analysis software (a product of Gilson Inc.).
as §4

| SMILES | activity at 0.01 µg/mL [1] [%] | activity at 0.03 µg/mL [1] [%] | activity at 0.1 µg/mL [1] [%] | activity at 0.3 µg/mL [1] [%] | activity at 1 µg/mL [1] [%] | Protein level of tyrosine hydroxylase (TH) in the brain corpus striatum region (% of control) [2] | Protein level of dopamine transporter (DAT) in the brain corpus striatum region (% of control) [3] | Dopamine content in the brain corpus striatum region (% of control) [4] | melting point [°C] |
| --- | --- | --- | --- | --- | --- | --- | --- | --- | --- |
| COc1ccc(-c2c[nH]c3c(-n4ccnc4)ccc(C)c3c2=O)cc1 [Example 67, 8-Imidazol-1-yl-3-(4-methoxyphenyl)-5-methyl-1H-quinolin-4-one] | 45 | 54 | 61 | 57 | 42 | 77.9 % of control | 50.9 % of control | 26.7 % of control | 196 to 198 |
| CCCOc1ccc(C2CC2)c2c(=O)c(-c3ccc(OC)cc3)c[nH]c12 [Example 65, 5-Cyclopropyl-3-(4-methoxyphenyl)-8-propoxy-1H-quinolin-4-one] | 59 | 73 | 78 | 66 | 20 | 65.2 % of control | 73.0 % of control | 31.2 % of control | 168 to 170 |
| CCCSc1ccc(C)c2c(=O)c(-c3ccc(OC)cc3)c[nH]c12 [Example 70, 3-(4-Methoxyphenyl)-5-methyl-8-propylsulfanyl-1H-quinolin-4-one] | 48 | 56 | 61 | 50 | 22 | 90.2 % of control | 64.1 % of control | 26.5 % of control | 132 to 135 |
| CCCOc1ccc(C)c2c(=O)c(-c3ccc(OC)cc3)c[nH]c12 [Example 1, 3-(4-Methoxyphenyl)-5-methyl-8-propoxy-1H-quinolin-4-one] | 58 | 68 | 73 | 66 | 46 | 86.2 % of control | 84.7 % of control | 39.6 % of control | 192 to 193 |
| COc1ccc(-c2c[nH]c3c(Oc4ccccc4)cccc3c2=O)cc1 [Example 18, 3-(4-Methoxyphenyl)-8-phenoxy-1H-quinolin-4-one] | 29 | 45 | 44 | 47 | 30 | – | – | – | 250 to 251 |
| CCCOc1ccc(COC)c2c(=O)c(-c3ccc(OC)cc3)c[nH]c12 [Example 64, 5-Methoxymethyl-3-(4-methoxyphenyl)-8-propoxy-1H-quinolin-4-one] | 51 | 56 | 63 | 53 | 38 | – | – | – | 81 to 83 |
